Measurements: US20030153030A1, “Enzyme-catalyzed modification of substances in biological mixtures” (priority 1999, published 2003)

Key:
MSCP5 cells = test: Prostaglandin synthesis/release in 14C-arachidonic acid-marked skin keratinocytes; assay type: cell-based, Murine; details: NS398 10 μM, positive control, 2 hours incubation
Experimental: FIG. 1 is a schematic illustration of the effects of salicin and salicin esters on the release of prostaglandin in keratinocytes. The average value of three measuring points is shown. In FIG. 1, 1=negative control, 2=salicin, 3=phenyl propionyl salicin, 4=p-OH-phenyl acetyl salicin and 5=positive control.
Murine (MSCP5) and human (HPKII) skin keratinocytes were marked for 16 hours with 0.2 μCi ^14C-arachidonic acid/ml medium. Salicin, phenylpropionyl salicin and p-OH-phenylacetyl salicin in fresh medium were added in increasing concentrations as test substances and incubated for 2 hours. In the positive control NS398 (10 μM) for MSCP5 cells, prostaglandin synthesis is reduced by 85%. The prostaglandins were identified by comparison with reference substances and quantified by radiodensitometry. MSCP5: 100%=201 cpm; HPKII: 100%=63 cpm.

[1] = Activity of salicin derivative as opposed to salicin; details: modified versus unmodified salicin

## CS(=O)(=O)Nc1ccc([N+](=O)[O-])cc1OC1CCCCC1 [NS398]
MSCP5 cells
  prostaglandin synthesis is reduced by: 85%

## O=C(Cc1ccc(O)cc1)OCC1OC(Oc2ccccc2CO)C(O)C(O)C1O (centres unmarked) [p-OH-phenyl acetoyl salicin, p-OH-phenylacetyl salicin]
[1]
  improvement of activity as opposed to salicin: improvements are also shown
